Measured values from BindingDB's records for doi:10.3109/14756366.2013.765415 (Universidad de la República, 2014).

How the values were obtained:
[1] = target: Triosephosphate isomerase (Homo sapiens, UniProt P60174); assay: Inhibition Assay; conditions: pH 7.4; 37 °C
Description: (§1) The reaction mixture (1 mL, pH 7.4) contained 100mM triethanolamine, 10mM EDTA, 0.2mM NADH, 1mM glyceraldehyde 3-phosphate (GAP) and 0.9 units of α-glycerol phosphate dehydrogenase (α-GPDH). The reaction was initiated by addition of 5 ng/mL of the corresponding TIM or the corresponding TIM pre-incubated with the studied compounds. In these cases, inhibition assays, the enzymes were pre-incubated for 2 h at 37 °C with the studied compounds.

[2] = target: Triosephosphate isomerase, glycosomal (Trypanosoma brucei brucei, UniProt P04789); assay: Inhibition Assay; conditions: pH 7.4; 37 °C
Chain of Triosephosphate isomerase, glycosomal (P04789 whole entry): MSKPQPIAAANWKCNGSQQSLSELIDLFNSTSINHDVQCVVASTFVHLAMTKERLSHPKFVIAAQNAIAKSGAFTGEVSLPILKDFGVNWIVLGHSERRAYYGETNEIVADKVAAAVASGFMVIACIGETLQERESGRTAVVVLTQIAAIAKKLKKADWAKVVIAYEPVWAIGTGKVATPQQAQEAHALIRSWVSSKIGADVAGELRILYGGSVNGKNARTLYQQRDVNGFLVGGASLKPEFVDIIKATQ
Description: as §1

| IC50 [1] [µM] | IC50 [2] [µM] | Compound |
| --- | --- | --- |
| 100 | – | Cc1ccc(-c2nsc(=O)[nH]2)cc1 [TIM inhibitor, 1] |
| > 100 | – | Oc1ccc2nc3cc(Cl)c(Cl)cc3nc2c1 [TIM inhibitor, 2] |
| > 100 | 34 | O=C1C(=Cc2ccc([N+](=O)[O-])o2)C(=O)N(Cc2ccccc2)SN1Cc1ccccc1 [TIM inhibitor, 3] |
